Legend:
Assay type in all cases: biochemical
FGFR4 = target: T1, FGFR4 (Homo sapiens, UniProt P22455); experiment: FGFR4 kinase activity inhibition assay (LanthaScreen TR-FRET); details: FGFR4 kinase, TR-FRET; read-out: IC50 (nM) FGFR4
T1 construct: FGFR4's cytoplasmic domain [460-802 (terminal) amino acids]; purchased Carna 08-136
Outline: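 GST-tagged cytoplasmic domains (FGFR2 aa 399-821; FGFR4 aa 460-802) were preincubated 10 min at 23 °C with compound (top 1 µM, threefold dilutions). Then 28 nM fluorescein-poly GT and 28 µM ATP were added for 30 min at 23 °C in HEPES pH 7.5 buffer. Tb-PY20 TR-FRET 520/495 ratio gave % inhibition versus DMSO and no-enzyme controls.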

FGFR1 = target: T2, FGFR1 (Homo sapiens, UniProt P11362); experiment: FGFR1 kinase activity inhibition assay (LanthaScreen TR-FRET); details: FGFR1 kinase, TR-FRET; read-out: IC50 (nM) FGFR1
T2 construct: cytoplasmic domain [398-822 (terminal) amino acids]; purchased Carna 08-133
Outline: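 Emission ratio 520 nm/495 nm by TR-FRET after stopping reaction with 10 mM EDTA and 60 min incubation at 22°C. Inhibition normalized between no-enzyme (min) and DMSO (max) controls, then fitted to a four-parameter curve (Top, Bottom, HillSlope).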

FGFR3 = target: T3, FGFR3 (Homo sapiens, UniProt P22607); experiment: FGFR3 kinase activity inhibition assay (LanthaScreen TR-FRET); details: for IC50: FGFR3 kinase, TR-FRET, read-out: IC50 (nM) FGFR3; for Selectivity (X) FGFR1/FGFR3: ratio of IC50 FGFR1/FGFR3, selectivity towards FGFR3; for Selectivity (X) FGFR2/FGFR3: ratio of IC50 FGFR2/FGFR3, selectivity towards FGFR3; for Selectivity (X) FGFR4/FGFR3: ratio of IC50 FGFR4/FGFR3, selectivity towards FGFR3
T3 construct: FGFR3's cytoplasmic domain [436-806 (terminal) amino acids]; purchased Carna 08-135
Outline: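 Read-out is TR-FRET, with the 520 nm/495 nm emission ratio normalised to DMSO (max) and enzyme-free (min) controls. Enzyme was the FGFR3 cytoplasmic domain, residues 436-806. EDTA (10 mM) stopped the reaction, followed by 60 min at 22 °C before reading.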

FGFR2 = target: T4, FGFR2 (Homo sapiens, UniProt P21802); experiment: FGFR2 kinase activity inhibition assay (LanthaScreen TR-FRET); details: FGFR2 kinase, TR-FRET; read-out: IC50 (nM) FGFR2
T4 construct: FGFR2's cytoplasmic domain [399-821 (terminal) amino acids]; purchased Carna 08-134
Outline: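 GST-fused FGFR2 cytoplasmic domain (aa 399-821) was run as in the FGFR1 protocol: preincubated 10 min at 23 °C with compound (3-fold series from 1 µM) in 50 mM HEPES pH 7.5, 10 mM MgCl2, 4 mM DTT, 1% DMSO. A 2× mix of 28 nM fluorescein-poly GT/28 µM ATP then reacted 30 min. Tb-PY20/EDTA quench preceded the TR-FRET 520/495 read.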

T3 sequence (P22607 436-806): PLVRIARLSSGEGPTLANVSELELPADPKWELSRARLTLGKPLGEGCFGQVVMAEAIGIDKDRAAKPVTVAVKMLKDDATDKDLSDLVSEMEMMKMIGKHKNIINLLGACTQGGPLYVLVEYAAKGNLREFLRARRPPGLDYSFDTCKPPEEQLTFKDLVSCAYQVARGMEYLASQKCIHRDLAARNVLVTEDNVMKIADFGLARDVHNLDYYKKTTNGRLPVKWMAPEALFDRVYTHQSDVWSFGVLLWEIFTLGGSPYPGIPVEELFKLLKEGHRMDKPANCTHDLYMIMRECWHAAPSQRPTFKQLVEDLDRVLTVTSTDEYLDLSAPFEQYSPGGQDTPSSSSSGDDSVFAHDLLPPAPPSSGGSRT
T4 sequence (P21802 399-821): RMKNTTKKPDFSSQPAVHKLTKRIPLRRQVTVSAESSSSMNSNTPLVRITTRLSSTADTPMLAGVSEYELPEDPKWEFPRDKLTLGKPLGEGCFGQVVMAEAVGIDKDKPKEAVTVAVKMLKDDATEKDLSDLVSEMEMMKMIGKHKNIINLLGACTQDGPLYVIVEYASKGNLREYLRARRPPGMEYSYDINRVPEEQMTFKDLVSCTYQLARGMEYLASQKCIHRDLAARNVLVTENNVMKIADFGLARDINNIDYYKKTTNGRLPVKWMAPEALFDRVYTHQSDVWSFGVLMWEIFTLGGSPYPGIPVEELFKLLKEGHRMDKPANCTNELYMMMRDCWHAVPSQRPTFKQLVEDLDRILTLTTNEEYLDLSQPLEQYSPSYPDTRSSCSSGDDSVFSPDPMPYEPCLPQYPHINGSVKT
T1 sequence (P22455 460-802): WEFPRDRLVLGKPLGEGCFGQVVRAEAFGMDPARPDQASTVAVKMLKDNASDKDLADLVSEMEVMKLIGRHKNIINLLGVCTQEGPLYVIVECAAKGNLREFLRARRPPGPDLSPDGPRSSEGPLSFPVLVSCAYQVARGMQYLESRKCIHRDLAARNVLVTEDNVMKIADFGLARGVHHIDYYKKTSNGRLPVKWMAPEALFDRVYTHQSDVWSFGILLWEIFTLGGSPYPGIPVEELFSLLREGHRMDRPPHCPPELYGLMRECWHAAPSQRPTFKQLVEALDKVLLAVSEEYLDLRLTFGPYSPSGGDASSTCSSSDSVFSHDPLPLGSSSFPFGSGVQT
T2 sequence (P11362 398-822): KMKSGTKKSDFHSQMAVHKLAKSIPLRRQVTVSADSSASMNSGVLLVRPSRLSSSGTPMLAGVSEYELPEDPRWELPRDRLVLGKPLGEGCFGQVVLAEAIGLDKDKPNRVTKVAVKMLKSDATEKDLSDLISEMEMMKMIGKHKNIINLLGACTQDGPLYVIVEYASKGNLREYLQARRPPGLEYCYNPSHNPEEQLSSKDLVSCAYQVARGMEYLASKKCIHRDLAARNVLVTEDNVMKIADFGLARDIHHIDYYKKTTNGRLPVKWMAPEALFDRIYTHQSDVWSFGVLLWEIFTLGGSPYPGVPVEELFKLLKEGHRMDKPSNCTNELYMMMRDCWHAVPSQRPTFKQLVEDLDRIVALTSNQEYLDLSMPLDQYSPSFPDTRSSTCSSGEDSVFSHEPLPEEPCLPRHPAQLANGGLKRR

CC(Oc1ccc2[nH]nc(-c3cnn(C4CN(C)C4)c3)c2c1)c1cccc2nccnc12 (stereo not shown) [Example 158, 5-(1-((3-(1-(1-methylazetidin-3-yl)-1H-pyrazol-4-yl)-1H-indazol-5-yl)oxy)ethyl)q uinoxaline]
IC50 (FGFR4): 10 to 100 nM | IC50 (FGFR1): 10 to 100 nM | IC50 (FGFR3): 1 to 10 nM | Selectivity (X) FGFR1/FGFR3 (FGFR3): B (B represents 20 ≤ multiple X<50) | Selectivity (X) FGFR2/FGFR3 (FGFR3): A (A represents 1 ≤ multiple X<20) | Selectivity (X) FGFR4/FGFR3 (FGFR3): C (C represents 50 ≤ multiple X<100) | IC50 (FGFR2): 1 to 10 nM

Cc1c(F)cc2ncccc2c1C(C)Oc1ccc2[nH]nc(-c3cnn(C)c3)c2c1 (stereo not shown) [Example 161, 7-fluoro-6-methyl-5-(1-((3-(1-methyl-1H-pyrazol-4-yl)-1H-indazol-5-yl)oxy)ethyl)quinoline]
IC50 (FGFR4): 10 to 100 nM | IC50 (FGFR1): 10 to 100 nM | IC50 (FGFR3): 1 to 10 nM | Selectivity (X) FGFR1/FGFR3 (FGFR3): B (B represents 20 ≤ multiple X<50) | Selectivity (X) FGFR2/FGFR3 (FGFR3): A (A represents 1 ≤ multiple X<20) | Selectivity (X) FGFR4/FGFR3 (FGFR3): B (B represents 20 ≤ multiple X<50) | IC50 (FGFR2): 10 to 100 nM

CC(Oc1ccc2[nH]nc(-c3cnn(C4CC(N(C)C)C4)c3)c2c1)c1cccc2nccnc12 (stereo not shown) [Example 170, N,N-dimethyl-3-(4-(5-(1-(quinoxalin-5-yl)ethoxy)-1H-indazol-3-yl)-1H-pyrazol-1-yl)cyclobutan-1-amine]
IC50 (FGFR4): 10 to 100 nM | IC50 (FGFR1): 1 to 10 nM | IC50 (FGFR3): < 1 nM | Selectivity (X) FGFR1/FGFR3 (FGFR3): A (A represents 1 ≤ multiple X<20) | Selectivity (X) FGFR2/FGFR3 (FGFR3): A (A represents 1 ≤ multiple X<20) | Selectivity (X) FGFR4/FGFR3 (FGFR3): C (C represents 50 ≤ multiple X<100) | IC50 (FGFR2): 1 to 10 nM

Cc1cc(C(C)Oc2ccc3[nH]nc(-c4cnn(C)c4)c3c2)c2ccnn2c1 (stereo not shown) [Example 171, 3-(1-methyl-1H-pyrazol-4-yl)-5-(1-(6-methylpyrazolo [1,5-a]pyridin-4-yl)ethoxy)-1H-indazole]
IC50 (FGFR4): 10 to 100 nM | IC50 (FGFR1): 10 to 100 nM | IC50 (FGFR3): < 1 nM | Selectivity (X) FGFR1/FGFR3 (FGFR3): B (B represents 20 ≤ multiple X<50) | Selectivity (X) FGFR2/FGFR3 (FGFR3): A (A represents 1 ≤ multiple X<20) | Selectivity (X) FGFR4/FGFR3 (FGFR3): B (B represents 20 ≤ multiple X<50) | IC50 (FGFR2): 1 to 10 nM

CC(Oc1ccc2[nH]nc(-c3cnn(CCCS(C)(=N)=O)c3)c2c1)c1cc(Cl)cc2nccnc12 (stereo not shown) [Example 173, (3-(4-(5-(1-(7-chloroquinoxalin-5-yl)ethoxy)-1H-indazol-3-yl)-1H-pyrazol-1-yl)propyl)(imino)(methyl)-sulfanone]
IC50 (FGFR4): 10 to 100 nM | IC50 (FGFR1): 1 to 10 nM | IC50 (FGFR3): < 1 nM | Selectivity (X) FGFR1/FGFR3 (FGFR3): A (A represents 1 ≤ multiple X<20) | Selectivity (X) FGFR2/FGFR3 (FGFR3): A (A represents 1 ≤ multiple X<20) | Selectivity (X) FGFR4/FGFR3 (FGFR3): B (B represents 20 ≤ multiple X<50) | IC50 (FGFR2): 1 to 10 nM

CC(Oc1ccc2[nH]nc(-c3cnn(C)c3)c2c1)c1cc(Cl)cn2nccc12 (stereo not shown) [Example 174, 5-(1-(6-chloropyrazolo[1,5-a]pyridin-4-yl)ethoxy)-3-(1-methyl-1H-pyrazol-4-yl)-1H-indazole]
IC50 (FGFR4): 10 to 100 nM | IC50 (FGFR1): 10 to 100 nM | IC50 (FGFR3): < 1 nM | Selectivity (X) FGFR1/FGFR3 (FGFR3): B (B represents 20 ≤ multiple X<50) | Selectivity (X) FGFR2/FGFR3 (FGFR3): B (B represents 20 ≤ multiple X<50) | Selectivity (X) FGFR4/FGFR3 (FGFR3): D (D represents 100 ≤ multiple X) | IC50 (FGFR2): 1 to 10 nM

[2H]C([2H])([2H])c1ccc2ncccc2c1C(C)Oc1ccc2[nH]nc(-c3cnn(C)c3)c2c1 (stereo not shown) [Example 187, 6-(methyl-d3) - 5-(1-((3-(1-methyl-1H-pyrazol-4-yl)-1H-indazol-5-yl)oxy)ethyl)qu inoline]
IC50 (FGFR4): 10 to 100 nM | IC50 (FGFR1): 10 to 100 nM | IC50 (FGFR3): 1 to 10 nM | Selectivity (X) FGFR1/FGFR3 (FGFR3): B (B represents 20 ≤ multiple X<50) | Selectivity (X) FGFR2/FGFR3 (FGFR3): A (A represents 1 ≤ multiple X<20) | Selectivity (X) FGFR4/FGFR3 (FGFR3): B (B represents 20 ≤ multiple X<50) | IC50 (FGFR2): 10 to 100 nM

CC(Oc1ccc2[nH]nc(-c3cnn(C4CN(C(=O)CO)C4)c3)c2c1)c1cc(Cl)cc2ncccc12 (stereo not shown) [Example 189, 1-(3-(4-(5-(1-(7-chloroquinolin-5-yl)ethoxy)-1H-indazol-3-yl)-1H-pyrazol-1-yl)azetidin-1-yl)-2-hydroxyethan-1-one]
IC50 (FGFR4): 10 to 100 nM | IC50 (FGFR1): > 100 nM | IC50 (FGFR3): < 1 nM | Selectivity (X) FGFR1/FGFR3 (FGFR3): D (D represents 100 ≤ multiple X) | Selectivity (X) FGFR2/FGFR3 (FGFR3): B (B represents 20 ≤ multiple X<50) | Selectivity (X) FGFR4/FGFR3 (FGFR3): C (C represents 50 ≤ multiple X<100) | IC50 (FGFR2): 10 to 100 nM

Cc1cn2nccc2c(C(C)Oc2ccc3[nH]nc(-c4cnn(C)c4)c3c2)n1 (stereo not shown) [Example 191, 6-methyl-4-(1-((3-(1-methyl-1H-pyrazol-4-yl)-1H-indazol-5-yl)oxy)ethyl)py razolo[1,5-a]pyrazine]
IC50 (FGFR4): 10 to 100 nM | IC50 (FGFR1): 10 to 100 nM | IC50 (FGFR3): < 1 nM | Selectivity (X) FGFR1/FGFR3 (FGFR3): C (C represents 50 ≤ multiple X<100) | Selectivity (X) FGFR2/FGFR3 (FGFR3): A (A represents 1 ≤ multiple X<20) | Selectivity (X) FGFR4/FGFR3 (FGFR3): C (C represents 50 ≤ multiple X<100) | IC50 (FGFR2): 1 to 10 nM

CC(Oc1ccc2[nH]nc(-c3cnn(C4CN(S(=O)(=O)N(C)C)C4)c3)c2c1)c1cccc2nccnc12 (stereo not shown) [Example 194, N,N-dimethyl-3-(4-(5-(1-(quinoxalin-5-yl)ethoxy)-1H-indazol-3-yl)-1H-pyrazol-1-yl)azetidine-1-sulfonamide]
IC50 (FGFR4): 10 to 100 nM | IC50 (FGFR1): 10 to 100 nM | IC50 (FGFR3): < 1 nM | Selectivity (X) FGFR1/FGFR3 (FGFR3): B (B represents 20 ≤ multiple X<50) | Selectivity (X) FGFR2/FGFR3 (FGFR3): A (A represents 1 ≤ multiple X<20) | Selectivity (X) FGFR4/FGFR3 (FGFR3): C (C represents 50 ≤ multiple X<100) | IC50 (FGFR2): 1 to 10 nM

CC(Oc1ccc2[nH]nc(-c3cnn(C4CN(S(C)(=O)=O)C4)c3)c2c1)c1cccc2nccnc12 (stereo not shown) [Example 195]
IC50 (FGFR4): 10 to 100 nM | IC50 (FGFR1): 10 to 100 nM | IC50 (FGFR3): < 1 nM | Selectivity (X) FGFR1/FGFR3 (FGFR3): B (B represents 20 ≤ multiple X<50) | Selectivity (X) FGFR2/FGFR3 (FGFR3): A (A represents 1 ≤ multiple X<20) | Selectivity (X) FGFR4/FGFR3 (FGFR3): B (B represents 20 ≤ multiple X<50) | IC50 (FGFR2): 1 to 10 nM

CC(Oc1ccc2[nH]nc(-c3cnn(C)c3)c2n1)c1c(C(F)F)ccc2ncccc12 (stereo not shown) [Example 203]
IC50 (FGFR4): 10 to 100 nM | IC50 (FGFR1): 10 to 100 nM | IC50 (FGFR3): < 1 nM | Selectivity (X) FGFR1/FGFR3 (FGFR3): B (B represents 20 ≤ multiple X<50) | Selectivity (X) FGFR2/FGFR3 (FGFR3): B (B represents 20 ≤ multiple X<50) | Selectivity (X) FGFR4/FGFR3 (FGFR3): C (C represents 50 ≤ multiple X<100) | IC50 (FGFR2): 10 to 100 nM

CNC1(C(=O)N2CC(n3cc(-c4n[nH]c5ccc(OC(C)c6cc(Cl)cc7nccnc67)cc45)cn3)C2)CC1 (stereo not shown) [Example 212, (3-(4-(5-(1-(7-chloroquinoxalin-5-yl)ethoxy)-1H-indazol-3-yl)-1H-pyrazol-1-yl)azetidin-1-yl)(1-(methylamino)cyclopropyl)metha none]
IC50 (FGFR4): 10 to 100 nM | IC50 (FGFR1): 10 to 100 nM | IC50 (FGFR3): < 1 nM | Selectivity (X) FGFR1/FGFR3 (FGFR3): B (B represents 20 ≤ multiple X<50) | Selectivity (X) FGFR2/FGFR3 (FGFR3): B (B represents 20 ≤ multiple X<50) | Selectivity (X) FGFR4/FGFR3 (FGFR3): D (D represents 100 ≤ multiple X) | IC50 (FGFR2): 1 to 10 nM
